Results as given in patent publication US20240109917A1 (ACTELION PHARMACEUTICALS LTD, priority 2020, published 2024).
Like-named read-outs stand apart in the source and are kept apart here.

Target: PDGFRβ (Rattus norvegicus (Rat), UniProt Q05030)
Test: PDGFRβ Cellular Assay (PDGFRb P-Y751 HTRF in A10 cells stimulated with PDGF-BB)
Format: cell-based
How it was run: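 Rat A10 cells, plated overnight, were treated with compound for 3 hours, then stimulated with PDGF-BB (working stock 100 ng/mL in 10% FBS medium). After lysis, PDGFRβ P-Y751 was detected by HTRF.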

PDGFRβ, sequence (Q05030 32-1097): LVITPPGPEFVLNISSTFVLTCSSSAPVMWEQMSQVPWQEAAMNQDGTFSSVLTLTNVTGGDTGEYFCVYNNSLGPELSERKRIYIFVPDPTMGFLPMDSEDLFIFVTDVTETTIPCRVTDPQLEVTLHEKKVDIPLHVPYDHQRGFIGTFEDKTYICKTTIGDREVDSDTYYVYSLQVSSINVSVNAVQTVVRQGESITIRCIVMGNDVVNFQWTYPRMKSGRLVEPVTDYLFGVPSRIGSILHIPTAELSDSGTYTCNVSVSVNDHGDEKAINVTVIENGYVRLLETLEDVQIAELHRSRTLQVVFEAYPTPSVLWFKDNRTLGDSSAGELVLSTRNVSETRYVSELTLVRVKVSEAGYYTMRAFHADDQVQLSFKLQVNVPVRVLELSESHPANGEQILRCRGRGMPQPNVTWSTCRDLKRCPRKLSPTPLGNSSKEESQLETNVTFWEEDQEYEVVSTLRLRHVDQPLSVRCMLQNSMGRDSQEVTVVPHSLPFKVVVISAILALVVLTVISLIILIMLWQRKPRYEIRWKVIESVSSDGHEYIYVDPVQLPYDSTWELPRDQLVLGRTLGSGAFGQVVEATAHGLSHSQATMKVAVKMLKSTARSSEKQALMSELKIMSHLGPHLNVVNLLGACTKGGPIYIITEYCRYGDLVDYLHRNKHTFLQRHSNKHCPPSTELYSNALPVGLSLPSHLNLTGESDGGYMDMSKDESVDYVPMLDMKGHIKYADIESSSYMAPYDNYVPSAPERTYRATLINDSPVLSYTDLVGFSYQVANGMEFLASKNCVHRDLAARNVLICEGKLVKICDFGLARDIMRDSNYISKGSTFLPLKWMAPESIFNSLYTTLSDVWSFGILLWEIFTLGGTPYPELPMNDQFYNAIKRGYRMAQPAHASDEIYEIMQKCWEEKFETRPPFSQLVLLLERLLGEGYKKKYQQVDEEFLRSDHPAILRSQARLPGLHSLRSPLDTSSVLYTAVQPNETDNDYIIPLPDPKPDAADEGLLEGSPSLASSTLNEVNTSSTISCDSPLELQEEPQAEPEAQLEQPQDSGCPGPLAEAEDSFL

Row | SMILES | IC50 (read-out: PDGFR Cellular IC50) [nM] | IC50 (PDGFR Cellular IC50) [nM]
1 | Cc1ncc(NC(=O)CN(C)C2CCOCC2)cc1NC(=O)c1cnn2cc(-c3cnn(C)c3)sc12 [Example 15, 2-(1-methyl-1H-pyrazol-4-yl)-N-(2-methyl-5-(2-(methyl(tetrahydro-2H-pyran-4-yl)amino)acetamido)pyridin-3-yl)pyrazolo[5,1-b]thiazole-7-carboxamide] | 15.7 | 
2 | Cc1ncc(C(=O)NCCN2CCCC23CCC3)cc1NC(=O)c1cnn2cc(-c3cn(C)nc3C)sc12 [Example 213, N-(5-((2-(5-azaspiro[3.4]octan-5-yl)ethyl)carbamoyl)-2-methylpyridin-3-yl)-2-(1,3-dimethyl-1H-pyrazol-4-yl)pyrazolo[5,1-b]thiazole-7-carboxamide] | 2.4 | 
3 | Cc1cc(C(=O)NCCN2CCCC2(C)C)sc1NC(=O)c1cnn2cc(-c3ccncc3)sc12 [Example 187, N-(5-((2-(2,2-dimethylpyrrolidin-1-yl)ethyl)carbamoyl)-3-methylthiophen-2-yl)-2-(pyridin-4-yl)pyrazolo[5,1-b]thiazole-7-carboxamide] | 1020 | 
4 | Cc1cc(C(=O)NCCN2[C@H](C)CCC[C@@H]2C)sc1NC(=O)c1cnn2cc(-c3cnn(C)c3)sc12 [Example 198, N-(5-((2-((2S,6R)-2,6-dimethylpiperidin-1-yl)ethyl)carbamoyl)-3-methylthiophen-2-yl)-2-(1-methyl-1H-pyrazol-4-yl)pyrazolo[5,1-b]thiazole-7-carboxamide] |  | 105
5 | Cc1ncc(NC(=O)CN2CCCC23CC3)cc1NC(=O)c1cnn2cc(-c3cnn(C)c3)sc12 [Example 16, N-(5-(2-(4-azaspiro[2.4]heptan-4-yl)acetamido)-2-methylpyridin-3-yl)-2-(1-methyl-1H-pyrazol-4-yl)pyrazolo[5,1-b]thiazole-7-carboxamide] | 4.1 | 
6 | Cc1ncc(NC(=O)OCCN2CC3CCC2C3)cc1NC(=O)c1cnn2cc(-c3cnn(C)c3)sc12 (stereo not shown) [Example 250, 2-(2-azabicyclo[2.2.1]heptan-2-yl)ethyl (6-methyl-5-(2-(1-methyl-1H-pyrazol-4-yl)pyrazolo[5,1-b]thiazole-7-carboxamido)pyridin-3-yl)carbamate] | 299 | 
7 | Cc1ncc(C(=O)NCCN2CC3CCC2C3)cc1NC(=O)c1cnn2cc(-c3cnn(C)c3C)sc12 (stereo not shown) [Example 210, N-(5-((2-(2-azabicyclo[2.2.1]heptan-2-yl)ethyl)carbamoyl)-2-methylpyridin-3-yl)-2-(1,5-dimethyl-1H-pyrazol-4-yl)pyrazolo[5,1-b]thiazole-7-carboxamide] | 89.8 | 
8 | Cn1cc(-c2cn3ncc(C(=O)Nc4sc(C(=O)NCCN5CCCC56CCC6)cc4C#N)c3s2)cn1 [Example 206, N-(5-((2-(5-azaspiro[3.4]octan-5-yl)ethyl)carbamoyl)-3-cyanothiophen-2-yl)-2-(1-methyl-1H-pyrazol-4-yl)pyrazolo[5,1-b]thiazole-7-carboxamide] | > 3000 | 
9 | Cc1cc(C(=O)NCCN2CCCC(O)C2)sc1NC(=O)c1cnn2cc(-c3cnn(C)c3)sc12 (stereo not shown) [Example 200, N-(5-((2-(3-hydroxypiperidin-1-yl)ethyl)carbamoyl)-3-methylthiophen-2-yl)-2-(1-methyl-1H-pyrazol-4-yl)pyrazolo[5,1-b]thiazole-7-carboxamide] | > 3000 | 
10 | Cc1ncc(C(=O)NCCN2CCCC2)cc1NC(=O)c1cnn2cc(-c3c(C)nn(C)c3C)sc12 [Example 223, N-(2-methyl-5-((2-(pyrrolidin-1-yl)ethyl)carbamoyl)pyridin-3-yl)-2-(1,3,5-trimethyl-1H-pyrazol-4-yl)pyrazolo[5,1-b]thiazole-7-carboxamide] | 69.5 | 
11 | Cc1ncc(NC(=O)OC[C@@H]2CCCN2C)cc1NC(=O)c1cnn2cc(-c3cnn(C)c3)sc12 [Example 243, (S)-(1-methylpyrrolidin-2-yl)methyl (6-methyl-5-(2-(1-methyl-1H-pyrazol-4-yl)pyrazolo[5,1-b]thiazole-7-carboxamido)pyridin-3-yl)carbamate] |  | 20.3
12 | Cc1ncc(C(=O)NCCN2CCCC2)cc1NC(=O)c1cnn2cc(-c3cn(C)nc3C)sc12 [Example 218, 2-(1,3-Dimethyl-1H-pyrazol-4-yl)-N-(2-methyl-5-((2-(pyrrolidin-1-yl)ethyl)carbamoyl)pyridin-3-yl)pyrazolo[5,1-b]thiazole-7-carboxamide] | 78.8 | 
13 | Cc1cc(C(=O)NCCN2CCCC2(C)C)sc1NC(=O)c1cnn2cc(-c3cncnc3)sc12 [Example 185, N-(5-((2-(2,2-dimethylpyrrolidin-1-yl)ethyl)carbamoyl)-3-methylthiophen-2-yl)-2-(pyrimidin-5-yl)pyrazolo[5,1-b]thiazole-7-carboxamide] | 42.6 | 
14 | Cc1cc(C(=O)NCCN2CCC(CO)CC2)sc1NC(=O)c1cnn2cc(-c3cnn(C)c3)sc12 [Example 193, N-(5-((2-(4-(hydroxymethyl)piperidin-1-yl)ethyl)carbamoyl)-3-methylthiophen-2-yl)-2-(1-methyl-1H-pyrazol-4-yl)pyrazolo[5,1-b]thiazole-7-carboxamide] | > 3000 | 
15 | Cc1ncc(C(=O)NCCN2CCCC23CCC3)cc1NC(=O)c1cnn2cc(-c3c(C)nn(C)c3C)sc12 [Example 214, N-(5-((2-(5-azaspiro[3.4]octan-5-yl)ethyl)carbamoyl)-2-methylpyridin-3-yl)-2-(1,3,5-trimethyl-1H-pyrazol-4-yl)pyrazolo[5,1-b]thiazole-7-carboxamide] | 3.9 | 
16 | COc1ncccc1-c1cn2ncc(C(=O)Nc3cc(C(=O)NCCN4CCCC4(C)C)cnc3C)c2s1 [Example 226, N-(5-((2-(2,2-Dimethylpyrrolidin-1-yl)ethyl)carbamoyl)-2-methylpyridin-3-yl)-2-(2-methoxypyridin-3-yl)pyrazolo[5,1-b]thiazole-7-carboxamide] | 3.2 | 
17 | Cc1ncc(C(=O)NCCN2C[C@H]3CC[C@@H]2C3)cc1NC(=O)c1cnn2cc(-c3cn(C)nc3C)sc12 [Example 211, N-(5-((2-((1R,4S)-2-azabicyclo[2.2.1]heptan-2-yl)ethyl)carbamoyl)-2-methylpyridin-3-yl)-2-(1,3-dimethyl-1H-pyrazol-4-yl)pyrazolo[5,1-b]thiazole-7-carboxamide] | 63.6 | 
18 | Cc1cc(C(=O)NCCN2CC[C@@H](O)C2)sc1NC(=O)c1cnn2cc(-c3cnn(C)c3)sc12 [Example 194, (R)—N-(5-((2-(3-hydroxypyrrolidin-1-yl)ethyl)carbamoyl)-3-methylthiophen-2-yl)-2-(1-methyl-1H-pyrazol-4-yl)pyrazolo[5,1-b]thiazole-7-carboxamide] | > 3000 | 
19 | Cc1ncc(C(=O)NCCNCCO)cc1NC(=O)c1cnn2cc(-c3cnn(C)c3)sc12 [Example 234, N-(5-((2-((2-hydroxyethyl)amino)ethyl)carbamoyl)-2-methylpyridin-3-yl)-2-(1-methyl-1H-pyrazol-4-yl)pyrazolo[5,1-b]thiazole-7-carboxamide] | > 3000 | 
20 | Cc1cc(C(=O)NCC(C)(C)N2CCCC2)sc1NC(=O)c1cnn2cc(-c3cnn(C)c3)sc12 [Example 202, 2-(1-methyl-1H-pyrazol-4-yl)-N-(3-methyl-5-((2-methyl-2-(pyrrolidin-1-yl)propyl)carbamoyl)thiophen-2-yl)pyrazolo[5,1-b]thiazole-7-carboxamide] |  | > 3000
21 | CCc1cc(C(=O)NCCN2CCCC23CCC3)sc1NC(=O)c1cnn2cc(-c3cnn(C)c3)sc12 [Example 205, N-(5-((2-(5-azaspiro[3.4]octan-5-yl)ethyl)carbamoyl)-3-ethylthiophen-2-yl)-2-(1-methyl-1H-pyrazol-4-yl)pyrazolo[5,1-b]thiazole-7-carboxamide] | 562 | 
22 | Cc1ncc(NC(=O)CN2CCCC2(C)C)cc1NC(=O)c1cnn2cc(-c3cnn(C)c3)sc12 [Example 13, N-(5-(2-(2,2-dimethylpyrrolidin-1-yl)acetamido)-2-methylpyridin-3-yl)-2-(1-methyl-1H-pyrazol-4-yl)pyrazolo[5,1-b]thiazole-7-carboxamide] | 3.3 | 
23 | Cc1ncc(C(=O)NCCN2CCCC2(C)C)cc1NC(=O)c1cnn2cc(-c3c(C)n[nH]c3C)sc12 [Example 231, 2-(3,5-Dimethyl-1H-pyrazol-4-yl)-N-(5-((2-(2,2-dimethylpyrrolidin-1-yl)ethyl)carbamoyl)-2-methylpyridin-3-yl)pyrazolo[5,1-b]thiazole-7-carboxamide] | 73.1 | 
24 | Cc1cc(C(=O)NCCN2CCc3ccccc3C2)sc1NC(=O)c1cnn2cc(-c3cnn(C)c3)sc12 [Example 204, N-(5-((2-(3,4-dihydroisoquinolin-2 (1H)-yl)ethyl)carbamoyl)-3-methylthiophen-2-yl)-2-(1-methyl-1H-pyrazol-4-yl)pyrazolo[5,1-b]thiazole-7-carboxamide] | 460 | 
25 | Cc1ncc(NC(=O)OCCN2CCCC2)cc1NC(=O)c1cnn2cc(-c3cnn(C)c3)sc12 [Example 246, 2-(pyrrolidin-1-yl)ethyl (6-methyl-5-(2-(1-methyl-1H-pyrazol-4-yl)pyrazolo[5,1-b]thiazole-7-carboxamido)pyridin-3-yl)carbamate] | 113 | 
26 | Cc1cc(C(=O)NCCN2CCCC2(C)C)sc1NC(=O)c1cnn2cc(-c3ccn(C)n3)sc12 [Example 188, N-(5-((2-(2,2-dimethylpyrrolidin-1-yl)ethyl)carbamoyl)-3-methylthiophen-2-yl)-2-(1-methyl-1H-pyrazol-3-yl)pyrazolo[5,1-b]thiazole-7-carboxamide] | 347 | 
27 | Cc1ncc(C(=O)NC[C@H]2CCCN2CCO)cc1NC(=O)c1cnn2cc(-c3cnn(C)c3)sc12 [Example 236, (R)—N-(5-(((1-(2-hydroxyethyl)pyrrolidin-2-yl)methyl)carbamoyl)-2-methylpyridin-3-yl)-2-(1-methyl-1H-pyrazol-4-yl)pyrazolo[5,1-b]thiazole-7-carboxamide] | 677 | 
28 | COCCn1cc(-c2cn3ncc(C(=O)Nc4cc(NC(=O)CCCN5CCC[C@@H]5C)cnc4C)c3s2)cn1 [Example 216, (S)-2-(1-(2-methoxyethyl)-1H-pyrazol-4-yl)-N-(2-methyl-5-(4-(2-methylpyrrolidin-1-yl)butanamido)pyridin-3-yl)pyrazolo[5,1-b]thiazole-7-carboxamide] |  | 626
